Laboratory results reported in PMC12525867, “Aromaticity Tuning in Biaryl Monophosphines and Their Derivatives” (Molecules, 2025).
Converted amounts (≈) assume the structure as drawn.

Legend:
Format in all cases: cell-based
[1] = test system: H1HeLa cells; test: Cytotoxicity, microculture tetrazolium (MTT) test, H1HeLa; conditions: H1HeLa, 24 h, microscopy
Procedure: (§1) The cytotoxicity of biaryl monophosphines was tested in vitro in normal (VERO) and cancer-derived (H1HeLa) cells after 24 h of incubation using a microculture tetrazolium test. Table 2 presents the CC50 (concentrations decreasing the cellular viability by 50%) values calculated from dose–response cytotoxicity curves (Figure 4).
(§2) Cytotoxicity was evaluated using a microculture tetrazolium test as previously described, and details can be found in the Supplementary Materials. The cell lines used in the presented study were acquired from the American Type Culture Collection (ATCC); the one used for cytotoxicity testing included non-cancerous VERO (kidney; ATCC CCL-81) cells and cancer-originating H1HeLa (cervical adenocarcinoma; ATCC CRL-1958) cells. VERO cells were cultured in Dulbecco’s Modified Eagle’s Medium (DMEM; Corning, Tewksbury, MA, USA), while Eagle’s Minimum Essential Medium (MEM; Corning) was used for H1HeLa. Antibiotics (penicillin–streptomycin solution, Corning) and fetal bovine serum (FBS, Corning) were added to cell media. Cells were incubated in a 5% CO2 atmosphere at 37 °C (CO2 incubator, Panasonic Healthcare Co., Tokyo, Japan). Briefly, the monolayers of VERO or H1HeLa cells in 96-well plates (Falcon, Corning) were treated with serial dilutions of selected compounds for 24 h. After this, the medium was removed, the plates were washed with phosphate buffered saline (PBS; Corning), a 10% solution of (3-(4,5-dimethylthiazol-2-yl)-2,5-diphenyltetrazolium bromide (MTT; Sigma-Aldrich, St. Louis, MO, USA) (5 mg/mL) in FBS-free cell media was added, and the incubation continued for the next 4 h. Subsequently, the precipitated formazan crystals were dissolved, and after overnight incubation at 37 °C, the Synergy H1 Multi-Mode Microplate Reader (BioTek Instruments, Inc., Winooski, VT, USA) with Gen5 software (ver. 3.09.07; BioTek Instruments, Inc.) was used for absorbance acquisition (540 and 620 nm). Data was exported to GraphPad Prism (ver. 10) to calculate the CC50 values (50% cytotoxic concentration) from dose–response curves.
(§3) Aromaticity Tuning in Biaryl Monophosphines and Their Derivatives […]
(§4) Cell line maintenance and in vitro experiments
(§5) The cytotoxicity of selected biaryl monophosphines was evaluated in vitro towards normal VERO (ATCC, CCL-81) cells and cancer-derived cell line H1HeLa (cervical adenocarcinoma; ATCC (American Type Culture Collection) CRL-1958) using 3-(4,5-dimethylthiazol-2-yl)-2,5-diphenylte-trazolium bromide (MTT) based protocol.
(§6) Media used for in vitro culturing included Dulbecco's Modified Eagle's Medium (DMEM, Corning, Tewksbury, MA, USA) used for VERO cells and Modified Eagle Medium (MEM, Corning) used for H1HeLa. Cell media used in the experiments were supplemented with antibiotics (Penicil-lin-Streptomycin Solution, Corning) and fetal bovine serum (FBS, Corning) – 10% (cell passaging) and 2% (cell maintenance and experiments). Phosphate-buffered saline (PBS) and trypsin were bought from Corning, whereas MTT (3-(4,5-dimethylthiazol-2-yl)-2,5-diphenyltetrazolium bromide) from Sigma (Sigma-Aldrich, St. Louis, MO, USA). SDS was purchased from PanReac Applichem (Darmstadt, Germany). Incubation was carried out in a 5% CO2 atmosphere at 37°C (CO2 incubator, Panasonic Healthcare Co., Tokyo, Japan).
(§7) Concentrations of cells for passaging were as follows: VERO – 1.5*10^5 cells/mL, H1HeLa – 2*10^5 cells/mL. Routine observations of cell cultures and experiments were carried out using an in-verted microscope (CKX41, Olympus Corporation, Tokyo, Japan) equipped with a ca mera (Moti-cam 3+, Motic, Hong Kong), and the results were recorded (Motic Images Plus 2.0, Motic).
(§8) Stock solutions of biaryl monophosphines were prepared by dissolving the samples in cell culture grade DMSO (PanReac Applichem).
(§9) Evaluation of cytotoxicity
(§10) Cytotoxicity was tested using an MTT-based protocol. The cells were passaged into 96-well plates (Falcon, TC-treated, Corning) and, after overnight incubation, treated with serial dilutions of […]

[2] = as above; conditions: human, H1HeLa cells (cervical adenocarcinoma, ATCC CRL-1958); H1HeLa (cervical adenocarcinoma), 24 h incubation, MTT; ± SD
Procedure: as §1, §2, §3, §4, §5, §6, §7, §8, §9, §10

[3] = test system: Gram-positive bacteria; test: Antibacterial screening, summary over the three Gram-positive reference species; conditions: range over three Gram-positive reference species
Procedure: The antimicrobial activities of a series of compounds 1–5 were tested through the utilization of seven reference species, encompassing both Gram-positive (Staphylococcus aureus ATCC 29213, Staphylococcus epidermidis ATCC 12228, Micrococcus luteus ATCC 10240) and Gram-negative (Escherichia coli ATCC 25922, Klebsiella pneumoniae ATCC 13883, Proteus mirabilis ATCC 12453, Acinetobacter baumannii ATCC 19606) bacteria as model microorganisms. For this purpose, microbial suspensions were prepared in sterile saline (0.85% NaCl) with an optical density of 0.5 McFarland standard, yielding a concentration of 150 × 10^6 CFU/mL (CFU, colony-forming units). All of the stock solutions of the tested compounds were dissolved in DMSO. Amoxicillin (Glentham Life Sciences Ltd., Corsham, UK) was used as a positive control.
The MIC values of the tested compounds were determined by serial twofold dilutions of 1–5 in Mueller Hinton Broth (MHB, Biomaxima, Lublin, Poland). The range of final 1–5 concentrations used was from 0.49 up to 1000 μg/mL, and for amoxicillin from 0.12 up to 250 μg/mL in the 96-well microtiter plates (Medlab, Raszyn, Poland), starting with 98 μL MHB and 2 μL bacterial inoculum added to each well. […] After incubation, the optical density of the microbial growth was measured at a wavelength of 600 nm using a microplate reader, the Biotek Elx800 (BioTek Instruments, Inc., Winooski, VT, USA). […]

Compound	influence on morphology of the cellular monolayer ([1]; 12.5 µg/mL)	CC50 at 24 h [2]	MBC [3]	MIC [3]	influence on morphology of the cellular monolayer ([1]; 1.6 µg/mL)	influence on morphology of the cellular monolayer ([1]; 3.1 µg/mL)	influence on morphology of the cellular monolayer ([1]; 6.3 µg/mL)
COc1ccccc1-c1c(P(=O)(C2CCCCC2)C2CCCCC2)c(OC)c2ccccc2c1OC [Compound 2, Dicyclohexyl[1,4-dimethoxy-3-(2-methoxyphenyl)naphthalen-2-yl]phosphane oxide]	monolayer of H1Hela was destroyed	5.92 ± 0.4 µg/mL	> 1000 µg/mL	1.95 to 15.6 µg/mL (≈ 3.85 to 30.9 µM)	–	–	–
COc1cc(OC)c(-c2c(P(=O)(C3CCCCC3)C3CCCCC3)c(O)c3ccccc3c2OC)c(OC)c1 [Compound 3, 2-(Dicyclohexylphosphoryl)-4-methoxy-3-(2,4,6-trimethoxyphenyl)naphthalen-1-ol]	destroyed the cellular monolayer	3.83 ± 0.33 µg/mL	–	–	the cellular monolayer resembled the control cells	only a fraction of shrunken cells visible	most of the cells showed cytotoxic damage
COc1cc(OC)c(-c2c(P(=O)(C3CCCCC3)C3CCCCC3)c(OC)c3ccccc3c2OC)c(OC)c1 [Compound 1, Dicyclohexyl[1,4-dimethoxy-3-(2,4,6-trimethoxyphenyl)naphthalen-2-yl]phosphane oxide]	monolayer of H1Hela was destroyed	6.78 ± 0.27 µg/mL	–	–	–	–	–
